For data set [1] the following is noted: ether bond, 20-membered ring, PPh3/DIAD, THF.
The conditions of data set [2]: ether bond, PPh3/DIAD, THF.
Another data set has as its system NL-RLuc virus. Description: Inhibition of HIV replication (NL-RLuc virus, luciferase readout, MT-2 cells). It is filed as cell-based. To be noted: Human immunodeficiency virus 1, MT2, 120 h. From the text:
Inhibition of HIV Replication:
A recombinant NL-RLuc proviral clone was constructed in which a section of the nef gene from NL4-3 was replaced with the Renilla Luciferase gene. This virus is fully infectious and can undergo multiple cycles of replication in cell culture. In addition, the luciferous reporter provides a simple and easy method for quantitating the extent of virus growth and consequently, the antiviral activity of test compounds. The plasmid pNLRLuc contains the proviral NL-Rluc DNA cloned into pUC18 at the PvuII site. The NL-RLuc virus was prepared by transfection of 293T cells with the plasmid pNLRLuc. Transfections were performed using the LipofectAMINE PLUS kit from Invitrogen (Carlsbad, Calif.) according to the manufacturer and the virus generated was titered in MT-2 cells. For susceptibility analyses, the titrated virus was used to infect MT-2 cells in the presence of compound, and after 5 days of incubation, cells were processed and quantitated for virus growth by the amount of expressed luciferase. Assay media was RPMI 1640 supplemented with 10% heat inactivated fetal bovine serum (FBS), 100 units/ml penicillin G/100 units/ml streptomycin, 10 mM HEPES buffer pH 7.55 and 2 mM L-glutamine. The results from at least 2 experiments were used to calculate the EC50 values. Luciferase was quantitated using the Dual Luciferase kit from Promega (Madison, Wis.). Susceptibility of viruses to compounds was determined by incubation in the presence of serial dilutions of the compound. The 50% effective concentration (EC50) was calculated by using the exponential form of the median effect equation where (Fa)=1/[1+(ED50/drug conc.)^m] (Johnson V A, Byington R T. Infectivity Assay. In Techniques in HIV Research. ed. Aldovini A, Walker B D. 71-76. New York: Stockton Press. 1990). Activity equal to A refers to a compound having an EC50≤100 nM, while B and C denote compounds having an EC50 between 100 nM and luM (B) or >1 uM (C).

[3] abbreviates: from COC(=O)[C@@H](OC(C)(C)C)c1c(C)c(C)c2nc(-c3cccc(-c4cc(F)c(F)cc4O)c3)c(C)n2c1N1CCC(C)(OCCOC[C@@H](C)O)CC1, 2.77 mM, 1.0 h, 2 steps.
Setting [4] is: from COC(=O)[C@@H](OC(C)(C)C)c1c(C)c(C)c2nc(-c3cccc(-c4ccc(C)cc4O)c3)cn2c1N1CCC(C)(OCCOC[C@@H](C)O)CC1, 20.0 mM, 0.5 h.
Where [5] appears, read: from COC(=O)[C@@H](OC(C)(C)C)c1c(C)c(C)c2nc(-c3cccc(-c4cc(C)ccc4O)c3)cn2c1N1CCC(C)(OCCOC[C@@H](C)O)CC1, 3.49 mM, 25.0 °C, 16.0 h.

Our source for the ring closure, isolated yield, ring closure, yield of all isomers and EC50 values is US10138253B2, “Imidazopyridine macrocycles as inhibitors of human immunodeficiency virus replication” (priority 2015, dated 2018).

Where two headings read alike, the source gives them in different places.

For `COC(=O)[C@@H](OC(C)(C)C)c1c(C)c(C)c2nc3c(C)n2c1N1CCC(C)(CC1)OCCOC[C@H](C)Oc1cc(F)c(F)cc1-c1cccc-3c1`, the ring closure, isolated yield in data set [1] (setting [3]) was 30%. This molecule returned a ring closure, yield of all isomers in data set [2] (setting [3]) of 30%.

In data set [1] (setting [4]), `COC(=O)[C@@H](OC(C)(C)C)c1c(C)c(C)c2nc3cn2c1N1CCC(C)(CC1)OCCOC[C@H](C)Oc1cc(C)ccc1-c1cccc-3c1` registered a ring closure, isolated yield of 47%. In addition, the ring closure, yield of all isomers in data set [2] (setting [4]) stood at 47%.

In turn, `COC(=O)[C@@H](OC(C)(C)C)c1c(C)c(C)c2nc3cn2c1N1CCC(C)(CC1)OCCOC[C@H](C)Oc1ccc(C)cc1-c1cccc-3c1` displayed a ring closure, isolated yield in data set [1] (setting [5]) of 60%. The ring closure, yield of all isomers in data set [2] (setting [5]) turned out to be 60%.

Consider `Cc1cc2nc3cn2c(c1[C@H](OC(C)(C)C)C(=O)O)N1CCC(C)(CC1)OCCOC[C@H](C)Oc1cc(F)c(F)cc1-c1cccc-3c1` [Example 1, (2S)-2-(tert-Butoxy)-2-[(22S)-17,18-difluoro-4,22,28-trimethyl-21,24,27-trioxa-1,7,34-triazahexacyclo[26.2.2.1^6,^9.1^1^0,^1^4.0^2,^7.0^1^5,^2^0]tetratriaconta-2,4,6(34),8,10(33),11,13,15(20),16,18-decaen-3-yl]acetic Acid], for which the EC50 in the data set on NL-RLuc virus (read-out: Activity) is < 0.1 µM; in the data set on NL-RLuc virus (read-out: EC50 μM), 0.001 µM.

With `Cc1c([C@H](OC(C)(C)C)C(=O)O)c2n3c(C)c(nc3c1C)-c1cccc(c1)-c1cc(F)c(F)cc1O[C@@H](C)COCCOC1(C)CCN2CC1` [Example 15, (2S)-2-(tert-Butoxy)-2-[(22S)-17,18-difluoro-4,5,8,22,28-pentamethyl-21,24,27-trioxa-1,7,34-triazahexacyclo[26.2.2.1^6,^9.1^1^0,^1^4.0^2,^7.0^1^5,^2^0]tetratriaconta-2,4,6(34),8,10(33),11,13,15(20),16,18-decaen-3-yl]acetic Acid], the EC50 in the data set on NL-RLuc virus (read-out: Activity) is < 0.1 µM.

For `Cc1c([C@H](OC(C)(C)C)C(=O)O)c2n3c(Cl)c(nc3c1C)-c1cccc(c1)-c1cc(F)ccc1O[C@@H](C)COCCOC1(C)CCN2CC1` [Example 29, (2S)-2-(tert-butoxy)-2-((6S,E)-23-chloro-45-fluoro-14,27,28,6-tetramethyl-5,8,11-trioxa-2(5,2)-imidazo[1,2-a]pyridina-1(1,4)-piperidina-3(1,3),4(1,2)-dibenzenacycloundecaphane-26-yl)acetic Acid], the EC50 in the data set on NL-RLuc virus (read-out: Activity) is < 0.1 µM; in the data set on NL-RLuc virus (read-out: EC50 μM) it was 0.001 µM.

`C=C(C)c1c(C)c([C@H](OC(C)(C)C)C(=O)O)c2n3cc(nc13)-c1cccc(c1)-c1cc(F)c(F)cc1O[C@@H](C)COCCOC1(C)CCN2CC1` [Example 14, (2S)-2-(tert-Butoxy)-2-[(22S)-17,18-difluoro-4,22,28-trimethyl-5-(prop-1-en-2-yl)-21,24,27-trioxa-1,7,34-triazahexacyclo[26.2.2.1^6,^9.1^1^0,^1^4.0^2,^7.0^1^5,^2^0]tetratriaconta-2,4,6(34),8,10(33),11,13,15(20),16,18-decaen-3-yl]acetic Acid]: the EC50 in the data set with NL-RLuc virus (read-out: Activity) is < 0.1 µM.

As to `CCC(C)(C)O[C@H](C(=O)O)c1c(C)c(C)c2nc3cn2c1N1CCC(C)(CC1)OCCOC[C@H](C)Oc1cc(F)c(F)cc1-c1cccc-3c1` [Example 4, (2S)-2-[(22S)-17,18-Difluoro-4,5,22,28-tetramethyl-21,24,27-trioxa-1,7,34-triazahexacyclo[26.2.2.1^6,^9.1^1^0,^1^4.0^2,^7.0^1^5,^2^0]tetratriaconta-2,4,6(34),8,10(33),11,13,15(20),16,18-decaen-3-yl]-2-[(2-methylbutan-2-yl)oxy]acetic Acid], in the data set on NL-RLuc virus (read-out: Activity), the EC50 was < 0.1 µM.

Regarding `Cc1c([C@H](OC(C)(C)C)C(=O)O)c2n3c(Cl)c(nc3c1Cn1cccn1)-c1cccc(c1)-c1cc(F)c(F)cc1O[C@@H](C)COCCOC1(C)CCN2CC1` [Example 10, (2S)-2-(tert-Butoxy)-2-[(22S)-8-chloro-17,18-difluoro-4,22,28-trimethyl-5-(1H-pyrazol-1-ylmethyl)-21,24,27-trioxa-1,7,34-triazahexacyclo[26.2.2.1^6,^9.1^1^0,^1^4.0^2,^7.0^1^5,^2^0]tetratriaconta-2,4,6(34),8,10(33),11,13,15(20),16,18-decaen-3-yl]acetic acid], the EC50 is < 0.1 µM with NL-RLuc virus (read-out: Activity) and 0.005 µM in the data set with NL-RLuc virus (read-out: EC50 μM).

Regarding `Cc1c([C@H](OC(C)(C)C)C(=O)O)c2n3c(Cl)c(nc3c1CO)-c1cccc(c1)-c1cc(F)c(F)cc1O[C@@H](C)COCCOC1(C)CCN2CC1` [Example 9, (2S)-2-(tert-Butoxy)-2-[(22S)-8-chloro-17,18-difluoro-5-(hydroxymethyl)-4,22,28-trimethyl-21,24,27-trioxa-1,7,34-triazahexacyclo[26.2.2.1^6,^9.1^1^0,^1^4.0^2,^7.0^1^5,^2^0]tetratriaconta-2,4,6(34),8,10(33),11,13,15(20),16,18-decaen-3-yl]acetic Acid], the EC50 with NL-RLuc virus (read-out: Activity) is < 0.1 µM.

As to `Cc1cc(F)c2c(c1)O[C@@H](C)COCCOC1(C)CCN(CC1)c1c([C@H](OC(C)(C)C)C(=O)O)c(C)cc3nc(cn13)-c1cccc-2c1` [Example 18, (2S)-2-(tert-Butoxy)-2-[(22S)-16-fluoro-4,18,22,28-tetramethyl-21,24,27-trioxa-1,7,34-triazahexacyclo[26.2.2.1^6,^9.1^1^0,^1^4.0^2,^7.0^1^5,^2^0]tetratriaconta-2,4,6(34),8,10(33),11,13,15(20),16,18-decaen-3-yl]acetic Acid], the EC50 in the data set with NL-RLuc virus (read-out: Activity) was < 0.1 µM.

Consider `Cc1c([C@H](OC(C)(C)C)C(=O)O)c2n3cc(nc3c1C(C)O)-c1cccc(c1)-c1cc(F)c(F)cc1O[C@@H](C)COCCOC1(C)CCN2CC1` (single isomer, unassigned) [Example 16], for which the EC50 in the data set on NL-RLuc virus (read-out: Activity) was < 0.1 µM; in the data set on NL-RLuc virus (read-out: EC50 μM), 0.002 µM.

In the case of `Cc1cc(F)c2c(c1)O[C@@H](C)COCCOC1(C)CCN(CC1)c1c([C@H](OC(C)(C)C)C(=O)O)c(C)c(C)c3nc(cn13)-c1cccc-2c1` [Example 19, (2S)-2-(tert-Butoxy)-2-((6S,Z)-46-fluoro-14,27,28,44,6-pentamethyl-5,8,11-trioxa-2(5,2)-imidazo[1,2-a]pyridina-1(1,4)-piperidina-3(1,3),4(1,2)-dibenzenacycloundecaphane-26-yl)acetic Acid], the EC50 with NL-RLuc virus (read-out: Activity) is < 0.1 µM.

Turning to `Cc1ccc2c(c1)-c1cccc(c1)-c1nc3c(C)c(C)c([C@H](OC(C)(C)C)C(=O)O)c(n3c1Cl)N1CCC(C)(CC1)OCCOC[C@H](C)O2` [Example 27, (2S)-2-(tert-Butoxy)-2-[(22S)-8-chloro-4,5,17,22,28-pentamethyl-21,24,27-trioxa-1,7,34-triazahexacyclo[26.2.2.1^6,^9.1^1^0,^1^4.0^2,^7.0^1^5,^2^0]tetratriaconta-2,4,6(34),8,10(33),11,13,15(20),16,18-decaen-3-yl]acetic Acid], in the data set with NL-RLuc virus (read-out: Activity), the EC50 was < 0.1 µM.

Regarding `Cc1ccc2c(c1)-c1cccc(c1)-c1cn3c(c([C@H](OC(C)(C)C)C(=O)O)c(C)cc3n1)N1CCC(C)(CC1)OCCOC[C@H](C)O2` [Example 25, (2S)-2-(tert-Butoxy)-2-[(22S)-4,17,22,28-tetramethyl-21,24,27-trioxa-1,7,34-triazahexacyclo[26.2.2.1^6,^9.1^1^0,^1^4.0^2,^7.0^1^5,^2^0]tetratriaconta-2,4,6(34),8,10(33),11,13,15(20),16,18-decaen-3-yl]acetic acid], the results for the EC50 in the data set on NL-RLuc virus (read-out: Activity) and with NL-RLuc virus (read-out: EC50 μM) were < 0.1 µM and 0.002 µM, respectively.
